Assay results: the NIST ThermoML archive (doi:10.1016/j.fluid.2011.07.018)

Test: xn = mol fraction of the nth substance listed
Details: 298.15 K, 101 kPa, Liquid; for speed of sound: Linear variable-path acoustic interferometer; for mass density: Vibrating tube method

Clc1ccc(Cl)c(Cl)c1 [1,2,4-trichlorobenzene] + C1CCOC1
Details | mass density [kg/m3] | speed of sound [m/s]
x2 = 0 | 1447.66 | 1272
x2 = 0.0358 | 1431.9 | 1303
x2 = 0.1451 | 1382.41 | 1326
x2 = 0.2456 | 1334.05 | 1346
x2 = 0.3483 | 1282.95 | 1355
x2 = 0.4617 | 1224.12 | 1352
x2 = 0.6012 | 1147.15 | 1339
x2 = 0.7076 | 1083.62 | 1327
x2 = 0.7639 | 1048.78 | 1320
x2 = 0.8162 | 1014.57 | 1313
x2 = 0.8743 | 975.21 | 1305
x2 = 0.9351 | 931.35 | 1300
x2 = 0.9642 | 909.82 | 1298

Clc1ccccc1Cl [1,2-dichlorobenzene] + C1CCOC1
Details | mass density [kg/m3] | speed of sound [m/s]
x2 = 0 | 1300.35 | 1269
x2 = 0.0327 | 1288.55 | 1274
x2 = 0.155 | 1244.23 | 1290
x2 = 0.3046 | 1189.35 | 1305
x2 = 0.4457 | 1135.03 | 1307
x2 = 0.5709 | 1084.3 | 1304
x2 = 0.6161 | 1065.67 | 1299
x2 = 0.6885 | 1034.31 | 1295
x2 = 0.7973 | 984.99 | 1283
x2 = 0.8425 | 963.65 | 1278
x2 = 0.8852 | 942.63 | 1274
x2 = 0.9451 | 911.72 | 1272

Clc1cccc(Cl)c1 [1,3-dichlorobenzene] + C1CCOC1
Details | mass density [kg/m3] | speed of sound [m/s]
x2 = 0 | 1282.82 | 1257
x2 = 0.0332 | 1272.22 | 1259
x2 = 0.1432 | 1234.54 | 1272
x2 = 0.272 | 1189.62 | 1276
x2 = 0.3809 | 1150.84 | 1277
x2 = 0.5198 | 1099.15 | 1276
x2 = 0.6244 | 1057.78 | 1275
x2 = 0.696 | 1027.92 | 1274
x2 = 0.8044 | 980.28 | 1270
x2 = 0.845 | 961.47 | 1265
x2 = 0.8852 | 941.79 | 1265
x2 = 0.942 | 912.92 | 1266

Cc1ccccc1Cl [2-chlorotoluene] + C1CCOC1
Details | mass density [kg/m3] | speed of sound [m/s]
x2 = 0 | 1077.63 | 1295
x2 = 0.1234 | 1057.75 | 1324
x2 = 0.264 | 1034.49 | 1345
x2 = 0.3444 | 1020.53 | 1347
x2 = 0.4669 | 998.27 | 1348
x2 = 0.5809 | 976.32 | 1343
x2 = 0.7119 | 949.73 | 1331
x2 = 0.7706 | 937.14 | 1326
x2 = 0.8264 | 924.69 | 1318
x2 = 0.8858 | 910.9 | 1310
x2 = 0.9564 | 893.59 | 1298

Cc1ccccc1[N+](=O)[O-] [2-nitrotoluene] + C1CCOC1
Details | mass density [kg/m3] | speed of sound [m/s]
x2 = 0 | 1155.24 | 2112
x2 = 0.1021 | 1135.24 | 2120
x2 = 0.2146 | 1111.7 | 2034
x2 = 0.3019 | 1092.19 | 1939
x2 = 0.4211 | 1063.58 | 1791
x2 = 0.4509 | 1056.04 | 1754
x2 = 0.521 | 1037.67 | 1677
x2 = 0.6045 | 1014.59 | 1593
x2 = 0.7211 | 979.81 | 1495
x2 = 0.8014 | 953.93 | 1433
x2 = 0.9324 | 907.94 | 1325

Cc1cccc(Cl)c1 [3-chlorotoluene] + C1CCOC1
Details | mass density [kg/m3] | speed of sound [m/s]
x2 = 0 | 1066.01 | 1279
x2 = 0.0662 | 1055.82 | 1293
x2 = 0.1944 | 1036.15 | 1313
x2 = 0.2787 | 1022.98 | 1319
x2 = 0.3891 | 1004.96 | 1324
x2 = 0.5228 | 981.71 | 1325
x2 = 0.6399 | 960.03 | 1320
x2 = 0.7368 | 941.06 | 1313
x2 = 0.7972 | 928.35 | 1307
x2 = 0.8601 | 914.63 | 1300
x2 = 0.9208 | 900.75 | 1290
x2 = 0.945 | 895.28 | 1287
x2 = 0.9739 | 888.4 | 1282

Cc1cccc([N+](=O)[O-])c1 [3-nitrotoluene] + C1CCOC1
Details | mass density [kg/m3] | speed of sound [m/s]
x2 = 0 | 1149.67 | 2100
x2 = 0.0914 | 1132.22 | 2093
x2 = 0.1522 | 1120.11 | 2029
x2 = 0.2026 | 1109.64 | 1969
x2 = 0.3146 | 1085.13 | 1847
x2 = 0.4209 | 1060.02 | 1719
x2 = 0.5476 | 1027.61 | 1588
x2 = 0.6024 | 1012.66 | 1542
x2 = 0.7519 | 968.47 | 1438
x2 = 0.8415 | 939.33 | 1380
x2 = 0.9324 | 907.47 | 1321

Cc1ccc(Cl)cc1 [4-chlorotoluene] + C1CCOC1
Details | mass density [kg/m3] | speed of sound [m/s]
x2 = 0 | 1064.21 | 1296
x2 = 0.0653 | 1054.92 | 1305
x2 = 0.168 | 1040.16 | 1308
x2 = 0.3251 | 1015.77 | 1308
x2 = 0.4558 | 994.13 | 1304
x2 = 0.5489 | 977.7 | 1301
x2 = 0.6335 | 962.01 | 1296
x2 = 0.7021 | 948.73 | 1293
x2 = 0.7609 | 936.9 | 1288
x2 = 0.8226 | 923.96 | 1284
x2 = 0.906 | 905.08 | 1280
x2 = 0.941 | 896.99 | 1277

C1CCOC1 [tetrahydrofuran] + Cc1ccc(Cl)cc1
x1 = 1
Details | mass density [kg/m3] | speed of sound [m/s]
– | 882.09 | 1270

C1CCOC1 [tetrahydrofuran] + Cc1cccc(Cl)c1
x1 = 1
Details | mass density [kg/m3] | speed of sound [m/s]
– | 882.09 | 1270

C1CCOC1 [tetrahydrofuran] + Cc1cccc([N+](=O)[O-])c1
x1 = 1
Details | mass density [kg/m3] | speed of sound [m/s]
– | 882.09 | 1270

C1CCOC1 [tetrahydrofuran] + Cc1ccccc1Cl
x1 = 1
Details | mass density [kg/m3] | speed of sound [m/s]
– | 882.09 | 1270

C1CCOC1 [tetrahydrofuran] + Cc1ccccc1[N+](=O)[O-]
x1 = 1
Details | mass density [kg/m3] | speed of sound [m/s]
– | 882.09 | 1270

C1CCOC1 [tetrahydrofuran] + Clc1ccc(Cl)c(Cl)c1
x1 = 1
Details | mass density [kg/m3] | speed of sound [m/s]
– | 882.09 | 1270

C1CCOC1 [tetrahydrofuran] + Clc1cccc(Cl)c1
x1 = 1
Details | mass density [kg/m3] | speed of sound [m/s]
– | 882.09 | 1270

C1CCOC1 [tetrahydrofuran] + Clc1ccccc1Cl
x1 = 1
Details | mass density [kg/m3] | speed of sound [m/s]
– | 882.09 | 1270
